Patent US11371016B2, “Method for producing retinal tissue” (SUMITOMO PHARMA CO., LTD., priority 2016, dated 2022)

Columns and labels:
[1] = test system: human iPS cells (1231A3 strain); assay: Differentiation of feeder-free cultured human iPS cells into retinal tissue; immunostaining of cell aggregates for Rx and Chx10; type: cell-based; conditions: day 17; for proportion of Rx positive cells in the total cells: BMP4 1.5 nM from day 3
[2] = test system: human iPS cells (1231A3 strain); assay: as above; type: cell-based; conditions: IWR-1e 3 μM in step 2 and step 3, BMP4 1.5 nM from day 3
Protocol: Human iPS cells (1231A3 strain, obtained from Kyoto University) were cultured under feeder free according to the method described in “Scientific Reports, 4, 3594 (2014)”. As a feeder-free medium, StemFit (registered trade mark) medium (AK03N, manufactured by Ajinomoto Co., Inc.) was used, and as a feeder-free scaffold, Laminin 511-E8 (manufactured by Nippi, Inc.) was used. As a specific maintenance culture operation, subconfluent human iPS cells (1231A3 strain) were first washed with PBS, and dispersed into single cells by using TrypLE Select (manufactured by Life Technologies). Thereafter, the aforementioned human iPS cells dispersed into single cells were seeded in a plastic culture dish coated with Laminin 511-E8, and cultured under feeder-free conditions in StemFit (registered trade mark) medium in the presence of Y27632 (ROCK inhibiting substance, 10 μM). When a 6-well plate (manufactured by Iwaki, for cell culture, culture area 9.4 cm^2) was used as the aforementioned plastic culture dish, the number of plated cells for the aforementioned human iPS cells dispersed into single cells was adjusted to 1.0×10^4. One day after seeding, the entire amount of the medium was changed with StemFit (registered trade mark) medium free of Y27632. Thereafter, once in 1-2 days, the entire amount of the medium was changed with StemFit (registered trade mark) medium free of Y27632. Thereafter, the cells were cultured until 6 days after seeding when they became subconfluent (60% of culture area is covered with cells). As a specific example of step 1 (Precondition) of the present production method, the following operation was performed. Subconfluent human iPS cells (1231A3 strain) were first washed with PBS, and dispersed into single cells by using TrypLE Select (manufactured by Life Technologies). Thereafter, the aforementioned human iPS cells dispersed into single cells were seeded in a plastic culture dish (manufactured by Iwaki) coated with Laminin 511-E8, and cultured under feeder-free conditions in StemFit (registered trade mark) medium in the presence of Y27632 (ROCK inhibiting substance, 10 μM). When a 6-well plate (manufactured by Iwaki, culture area 9.4 cm^2) was used as the aforementioned plastic culture dish, the number of plated cells for the aforementioned human iPS cells dispersed into single cells was adjusted to 1.0×10^4. When a 60 mm dish (manufactured by Iwaki, for cell culture, culture area 21 cm^2) was used as the aforementioned plastic culture dish, the number of plated cells for the aforementioned human iPS cells dispersed into single cells was adjusted to 2.0×10^4. One day after seeding, the entire amount of the medium was changed with StemFit (registered trade mark) medium free of Y27632. […]

[3] = Precondition SB431542 5 μM + SAG 300 nM in step 1, day 17

CNC1CCC(N(Cc2cccc(-c3ccncc3)c2)C(=O)c2sc3ccccc3c2Cl)CC1 (stereo not shown) [SAG]
proportion of Rx positive cells in the total cells ([1]; Example 2 Condition 2: Precondition SAG 300 nM one day in step 1, no Wnt inhibiting substance, no SAG in step 2): about 40% | Chx10 status of Rx positive cells (serial sections) ([1]; Example 2 Condition 2: Precondition SAG 300 nM, no IWR-1e, no SAG in step 2): Chx10 co-positive | proportion of Rx positive cells in the total cells ([1]; Example 2 Condition 4: Precondition SAG 300 nM in step 1, SAG 30 nM in step 2, no IWR-1e): about 60% | Chx10 status of Rx positive cells (serial sections) ([1]; Example 2 Condition 4: Precondition SAG 300 nM, SAG 30 nM in step 2, no IWR-1e): Chx10 co-positive | neural tissue formation ([1]; Example 2 Conditions 2-5: Precondition treatment with SAG 300 nM in step 1, versus Condition 1 without Precondition (not formed)): a neural tissue was formed

O=C(Nc1cccc2cccnc12)c1ccc(N2C(=O)[C@@H]3[C@H](C2=O)[C@@H]2C=C[C@H]3C2)cc1 [IWR-1e, 4-[(3aR,4S,7R,7aS)-1,3,3a,4,7,7a-hexahydro-1,3-dioxo-4,7-methano-2H-isoindol-2-yl]-N-8-quinolinyl-benzamide]
Chx10 positive (strong positive) cells [2, 3]: about 60% | proportion of Rx positive cells in the total cells [2, 3]: about 60% | Chx10 positiveness in the cell aggregate ([2]; no Precondition in step 1, day 17): weak Chx10 positiveness | proportion of Rx positive cells in the total cells ([2]; no Precondition in step 1, day 17 of suspension culture): about 40% | proportion of Rx positive cells in the total cells ([1]; Example 2 Condition 3: Precondition SAG 300 nM in step 1, IWR-1e 3 μM in step 2 and step 3): about 90% | Chx10 status of Rx positive cells (serial sections) ([1]; Example 2 Condition 3: Precondition SAG 300 nM, IWR-1e 3 μM in step 2 and step 3): Chx10 co-positive | proportion of Rx positive cells in the total cells ([1]; Example 2 Condition 5: Precondition SAG 300 nM in step 1, SAG 30 nM in step 2, IWR-1e 3 μM in step 2 and step 3): about 90% | Chx10 status of Rx positive cells (serial sections) ([1]; Example 2 Condition 5: Precondition SAG 300 nM, SAG 30 nM in step 2, IWR-1e 3 μM in step 2 and step 3): Chx10 co-positive
